As usually defined, the EC50 is the concentration needed to bring the measured effect to its halfway point. By AUC is commonly meant the area under the concentration-time curve, a measure of exposure. One may read the solubility as the concentration that dissolves in the medium under given conditions. The term bioavailability denotes the share of a dose that reaches the circulation, judged against a reference dose that is usually intravenous.

This is an account of results in ChEMBL document CHEMBL4665638, “Second Generation Inhibitors of HIV-1 Maturation” (ACS Med Chem Lett, 2019).

Data set [1] can be described thus: Binding affinity to wild type HIV-1 NL4-3 CA-SP1 cleavage site of Gag-Pol protein assessed as inhibition of HIV-1 maturation. On the set-up: species or system Human immunodeficiency virus 1.
Data set [2] can be described thus: Binding affinity to HIV-1 CA-SP1 cleavage site of Gag-pol protein harboring deltaV370 mutant assessed as inhibition of HIV-1 maturation. Also noted: species or system Human immunodeficiency virus 1.
A short description of data set [3]: Binding affinity to HIV-1 CA-SP1 cleavage site of Gag-Pol protein harboring V370A mutant assessed as inhibition of HIV-1 maturation. Also noted: species or system Human immunodeficiency virus 1.
The nature of data set [4]: Binding affinity to wild type HIV-1 NL4-3 CA-SP1 cleavage site of Gag-Pol protein assessed as inhibition of HIV-1 maturation in presence of human serum albumin. Also noted: species or system Human immunodeficiency virus 1.
Data set [5] relates to Human immunodeficiency virus 1. The experiment in a line: Ratio of EC50 for wild type HIV-1 NL4-3 CA-SP1 cleavage site of Gag-Pol protein in presence of human serum albumin to EC50 for wild type HIV-1 NL4-3 CA-SP1 cleavage site of Gag-Pol protein.
The nature of data set [6]: AUC in rat at 5 mg/kg, po measured for 6 hrs. Also noted: time 6 hrs, dose 5 mg/kg. Format: ADME, organism-based. Particulars: in vivo.
A short description of data set [7]: Binding affinity to HIV-1 CA-SP1 cleavage site of Gag-Pol protein harboring […] mutant assessed as inhibition of HIV-1 maturation. Also noted: species or system Human immunodeficiency virus 1.
A short description of data set [8]: Binding affinity to HIV-1 CA-SP1 cleavage site of Gag-Pol protein harboring deltaV370/Thr371Ala mutant assessed as inhibition of HIV-1 maturation. Also noted: species or system Human immunodeficiency virus 1.
A short description of data set [9]: Aqueous solubility of the compound. Format: physicochemical.
The nature of data set [10]: Clearance in rat at 5 mg/kg, po or 1 mg/kg, iv. Format: ADME, organism-based. Particulars: in vivo.
The nature of data set [11]: Binding affinity to HIV-1 CA-SP1 cleavage site of Gag-Pol protein harboring V370M mutant assessed as inhibition of HIV-1 maturation. On the set-up: species or system Human immunodeficiency virus 1.
The nature of data set [12]: Volume of distribution at steady state in dog. It is filed as ADME, Canis lupus familiaris. The settings on record: in vivo, read-out: Vdss.
Data set [13] can be described thus: Binding affinity to HIV-1 CA-SP1 cleavage site of Gag-Pol protein harboring V362I mutant assessed as inhibition of HIV-1 maturation. Also noted: species or system Human immunodeficiency virus 1.
Data set [14] in a line: Binding affinity to HIV-1 CA-SP1 cleavage site of Gag-Pol protein harboring Thr371Ala mutant assessed as inhibition of HIV-1 maturation. Also noted: species or system Human immunodeficiency virus 1.
A short description of data set [15]: Volume of distribution at steady state in cynomolgus monkey. Format: ADME, Macaca fascicularis. The settings on record: in vivo, read-out: Vdss.
The nature of data set [16]: Oral bioavailability in dog. Format: ADME, organism-based, Canis lupus familiaris. Particulars: in vivo.
A short description of data set [17]: Clearance in dog. Format: ADME, Canis lupus familiaris. The settings on record: in vivo.
The nature of data set [18]: Binding affinity to HIV-1 CA-SP1 cleavage site of Gag-Pol protein harboring deltaThr371 mutant assessed as inhibition of HIV-1 maturation. Also noted: species or system Human immunodeficiency virus 1.
Data set [19] in a line: Oral bioavailability in cynomolgus monkey. Format: ADME, organism-based, Macaca fascicularis. Particulars: in vivo.
A short description of data set [20]: AUC in rat for 6 hrs. On the set-up: time 6 hrs. It is filed as ADME. Particulars: in vivo.

As to `C=C(C)[C@@H]1CC[C@]2(C(=O)N[C@@H](CN(C)C)C(=O)O)CC[C@]3(C)[C@H](CC[C@@H]4[C@@]5(C)CC=C(c6ccc(C(=O)O)cc6)C(C)(C)[C@@H]5CC[C@]43C)[C@@H]12`, the concentration giving a half-maximal response (EC50) in data set [1] was 46 nM; in data set [2], > 160 nM; in data set [3], 772 nM.
Consider `C=C(C)[C@@H]1CC[C@]2(C(=O)O)CC[C@]3(C)[C@H](CC[C@@H]4[C@@]5(C)CC=C(c6ccc(C(=O)O)cc6Cl)C(C)(C)[C@@H]5CC[C@]43C)[C@@H]12`, for which the EC50 was 114 nM in data set [1], 117 nM in [4] and > 4000 nM in [3]. The Ratio EC50 in data set [5] amounted to 1.
Regarding `C=C(C)[C@@H]1CC[C@]2(C(=O)NCCN(C)C)CC[C@]3(C)[C@H](CC[C@@H]4[C@@]5(C)CC=C(c6ccc(C(=O)O)cc6)C(C)(C)[C@@H]5CC[C@]43C)[C@@H]12`, the EC50 in [2] was found to be 31 nM.
As to `C=C(C)[C@@H]1CC[C@]2(CN(C)CCCN3CCS(=O)(=O)CC3)CC[C@]3(C)[C@H](CC[C@@H]4[C@@]5(C)CC=C(c6ccc(C(=O)O)cc6)C(C)(C)[C@@H]5CC[C@]43C)[C@@H]12`, the EC50 in data set [2] worked out at 26 nM. The AUC in [6] (6 h) amounted to 4.834 µM·h.
As to `C=C(C)[C@@H]1CC[C@]2(CNCCN(C)C)CC[C@]3(C)[C@H](CC[C@@H]4[C@@]5(C)CC=C(c6ccc(C(=O)O)cc6)C(C)(C)[C@@H]5CC[C@]43C)[C@@H]12`, the EC50 in [4] came out at 9 nM; in data set [2], 21 nM.
Regarding `C=C(C)[C@@H]1CC[C@]2(C(=O)O)CC[C@]3(C)[C@H](CC[C@@H]4[C@@]5(C)CC[C@H](OC(=O)CC(C)(C)C(=O)O)C(C)(C)[C@@H]5CC[C@]43C)[C@@H]12` [BEVIRIMAT], the EC50 in [7] is 8 nM; in [8], > 4000 nM; in [11], 111 nM. Further, in data set [9], the solubility was < 1 µg/mL. In addition, the clearance in data set [10] amounted to 4 mL/min/kg.
In the case of `C=C(C)[C@@H]1CC[C@]2(NCCN3CCS(=O)(=O)CC3)CC[C@]3(C)[C@H](CC[C@@H]4[C@@]5(C)CC=C(c6ccc(C(=O)O)cc6)C(C)(C)[C@@H]5CC[C@]43C)[C@@H]12` [BMS-955176], the EC50 is 10 nM in data set [4]; 13 nM in [2]; 7 nM in [8]; 4 nM in data set [13]; 3 nM in data set [14]; 3 nM in [3]. The EC50 in data set [18] was 5 nM; in [11], 3 nM. Also, the Vd came to 0.43 L/kg in data set [12] and 0.36 L/kg in [15]. In [6], this compound showed an area under the curve (AUC) at 6 h of 14.2 µM·h. Also, the results for the bioavailability in data set [16] and in [19] were 9% and 4%, respectively. Also, the solubility in [9] was < 1 µg/mL. Also, in data set [17], the clearance came out at 0.13 mL/min/kg.
In the case of `C=C(C)[C@@H]1CC[C@]2(C(=O)O)CC[C@]3(C)[C@H](CC[C@@H]4[C@@]5(C)CC=C(c6ccc(C(=O)O)cc6C)C(C)(C)[C@@H]5CC[C@]43C)[C@@H]12`, the EC50 was determined as 613 nM in data set [1], 660 nM in [4] and 3900 nM in data set [3]. Moreover, the Ratio EC50 in data set [5] came to 1.
As for `C=C(C)[C@@H]1CC[C@]2(C(=O)NCCN(CC)CC(=O)O)CC[C@]3(C)[C@H](CC[C@@H]4[C@@]5(C)CC=C(c6ccc(C(=O)O)cc6)C(C)(C)[C@@H]5CC[C@]43C)[C@@H]12`, the EC50 in [1] is 3 nM; in data set [2] it was 64 nM; in data set [3], 9 nM.
Turning to `C=C(C)[C@@H]1CC[C@]2(C(=O)O)CC[C@]3(C)[C@H](CC[C@@H]4[C@@]5(C)CC=C(c6ccc(C(=O)O)c(C(=O)O)c6)C(C)(C)[C@@H]5CC[C@]43C)[C@@H]12`, the EC50 was 38 nM in [1] and 212 nM in [3].
`C=C(C)[C@@H]1CC[C@]2(C(=O)NCCC(C)C)CC[C@]3(C)[C@H](CC[C@@H]4[C@@]5(C)CC=C(c6ccc(C(=O)O)cc6)C(C)(C)[C@@H]5CC[C@]43C)[C@@H]12`: the concentration for a half-maximal effect (EC50) in data set [1] came out at 47 nM; in data set [2], 1600 nM; in data set [3], 101 nM.
For `C=C(C)[C@@H]1CC[C@]2(C(=O)O)CC[C@]3(C)[C@H](CC[C@@H]4[C@@]5(C)CC=C(c6ccc(C(=O)O)cc6F)C(C)(C)[C@@H]5CC[C@]43C)[C@@H]12`, the EC50 was 55 nM in data set [1], 50 nM in [4] and 1400 nM in [3]. Also, the Ratio EC50 in data set [5] stood at 1.
Turning to `C=C(C)[C@@H]1CC[C@]2(C(=O)O)CC[C@]3(C)[C@H](CC[C@@H]4[C@@]5(C)CC=C(c6cccc(C(=O)O)c6)C(C)(C)[C@@H]5CC[C@]43C)[C@@H]12`, the EC50 in [1] is > 8000 nM.
With `C=C(C)[C@@H]1CC[C@]2(C(=O)NCCC(=O)O)CC[C@]3(C)[C@H](CC[C@@H]4[C@@]5(C)CC=C(c6ccc(C(=O)O)cc6)C(C)(C)[C@@H]5CC[C@]43C)[C@@H]12`, the EC50 in [1] was 37 nM; in data set [4], 449 nM; in [2] it was > 4000 nM; in data set [3], 427 nM.
With `C=C(C)[C@@H]1CC[C@]2(NCCN3CCS(=O)(=O)CC3)CC[C@]3(C)[C@H](CC[C@@H]4[C@@]5(C)CC=C(c6ccc(C(=O)O)c(F)c6)C(C)(C)[C@@H]5CC[C@]43C)[C@@H]12`, the EC50 was 3 nM in data set [1], 13 nM in [4] and 10 nM in [2]. Also, the AUC at 6 h in data set [6] was found to be 25.5 µM·h.
As to `C=C(C)[C@@H]1CC[C@]2(CNCCN3CCS(=O)(=O)CC3)CC[C@]3(C)[C@H](CC[C@@H]4[C@@]5(C)CC=C(c6ccc(C(=O)O)cc6)C(C)(C)[C@@H]5CC[C@]43C)[C@@H]12`, in [2], the EC50 amounted to 6 nM.
In turn, `C=C(C)[C@@H]1CC[C@]2(CNCCCN3CCS(=O)(=O)CC3)CC[C@]3(C)[C@H](CC[C@@H]4[C@@]5(C)CC=C(c6ccc(C(=O)O)cc6)C(C)(C)[C@@H]5CC[C@]43C)[C@@H]12` gave an AUC at 6 h in [6] of 1.71 µM·h.
As for `C=C(C)[C@@H]1CC[C@]2(C(=O)NCCN3CCS(=O)(=O)CC3)CC[C@]3(C)[C@H](CC[C@@H]4[C@@]5(C)CC=C(c6ccc(C(=O)O)cc6)C(C)(C)[C@@H]5CC[C@]43C)[C@@H]12`, the EC50 in data set [1] turned out to be 2 nM; in [2], 60 nM; in data set [3], 6 nM. This compound also displayed an AUC at 6 h in data set [6] of 3.99 µM·h.
For the compound `C=C(C)[C@@H]1CC[C@]2(C(=O)O)CC[C@]3(C)[C@H](CC[C@@H]4[C@@]5(C)CC=C(c6ccc(C(=O)O)cc6)C(C)(C)[C@@H]5CC[C@]43C)[C@@H]12`, in data set [2], the EC50 is > 3000 nM. Also, the clearance in [10] came to 1 mL/min/kg. Further, the AUC at 6 h in [20] was determined as 5.72 µM·h.
`C=C(C)[C@@H]1CC[C@]2(C(=O)NCCNC(C)=O)CC[C@]3(C)[C@H](CC[C@@H]4[C@@]5(C)CC=C(c6ccc(C(=O)O)cc6)C(C)(C)[C@@H]5CC[C@]43C)[C@@H]12`: the EC50 came to 5 nM in [1], 22 nM in [4], 361 nM in data set [2] and 24 nM in data set [3].
